PMC12713023, “CDH1 Orchestrates Anabolic Events to Promote Cell Cycle Initiation” (Advanced Science, 2025)

How the values were obtained:
CPT2 = target: T1, CPT2 (Homo sapiens, UniProt P23786); assay: CoA consumption, DTNB at […] nm; assay type: biochemical; conditions: 2 mM CoA, 2 mM palmitoyl-L-carnitine, pH 7.5, 37 °C
T1 sequence (P23786 26-658): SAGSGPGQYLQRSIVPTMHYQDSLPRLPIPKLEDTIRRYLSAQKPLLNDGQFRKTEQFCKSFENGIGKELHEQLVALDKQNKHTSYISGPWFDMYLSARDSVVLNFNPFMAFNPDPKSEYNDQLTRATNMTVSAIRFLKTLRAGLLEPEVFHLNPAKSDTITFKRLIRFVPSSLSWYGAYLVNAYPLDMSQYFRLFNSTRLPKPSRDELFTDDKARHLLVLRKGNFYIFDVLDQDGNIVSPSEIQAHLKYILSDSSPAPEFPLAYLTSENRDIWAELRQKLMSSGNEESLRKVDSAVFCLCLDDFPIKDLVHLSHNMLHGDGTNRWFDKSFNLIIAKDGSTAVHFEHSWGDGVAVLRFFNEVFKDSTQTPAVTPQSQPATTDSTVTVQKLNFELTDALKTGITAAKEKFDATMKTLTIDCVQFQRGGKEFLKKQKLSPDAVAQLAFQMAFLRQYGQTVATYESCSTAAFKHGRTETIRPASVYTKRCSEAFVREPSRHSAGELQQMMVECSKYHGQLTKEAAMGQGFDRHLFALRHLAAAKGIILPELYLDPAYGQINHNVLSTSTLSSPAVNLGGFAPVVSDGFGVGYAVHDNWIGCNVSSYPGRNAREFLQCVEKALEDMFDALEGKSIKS

[1] = target: T2, TKTL1 (transketolase-like-1) (Homo sapiens, UniProt P51854); assay: biolayer interferometry, His-tagged protein on anti-His biosensors, […] fit; assay type: binding; conditions: PBST, 30 °C, 0.82-200 µM ligand; KD = kd/ka
T2 construct: CDS in pET-22b(+), His-tagged, E. coli BL21(DE3), Ni-NTA; tag kept (captured on anti-His biosensors)
T2 sequence (P51854 1-596): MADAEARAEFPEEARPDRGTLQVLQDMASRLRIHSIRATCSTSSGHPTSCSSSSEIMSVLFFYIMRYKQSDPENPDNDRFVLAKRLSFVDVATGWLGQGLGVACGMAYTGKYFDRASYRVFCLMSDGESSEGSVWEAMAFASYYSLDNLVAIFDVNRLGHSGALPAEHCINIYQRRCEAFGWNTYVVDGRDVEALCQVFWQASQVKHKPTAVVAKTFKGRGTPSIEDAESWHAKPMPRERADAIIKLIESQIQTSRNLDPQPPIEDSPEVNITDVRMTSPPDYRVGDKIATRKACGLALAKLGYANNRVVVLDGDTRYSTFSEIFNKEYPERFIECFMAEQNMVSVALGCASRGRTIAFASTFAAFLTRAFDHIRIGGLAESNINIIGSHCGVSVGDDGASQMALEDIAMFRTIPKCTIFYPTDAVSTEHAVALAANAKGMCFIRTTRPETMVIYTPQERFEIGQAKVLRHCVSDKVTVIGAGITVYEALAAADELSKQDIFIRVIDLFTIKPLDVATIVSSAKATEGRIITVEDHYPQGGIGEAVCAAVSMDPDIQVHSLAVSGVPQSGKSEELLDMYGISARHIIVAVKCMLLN

Kd [1]	Structure (SMILES)	relative specific activity (CPT2)
	CC(C)(COP(=O)(O)OP(=O)(O)OC[C@H]1O[C@@H](n2cnc3c(N)ncnc32)[C@H](O)[C@@H]1OP(=O)(O)O)[C@@H](O)C(=O)NCCC(=O)NCCS [CoA]	CPT2 activity was assayed by measuring the decrease in CoA levels
8.58 µM	O=S(=O)(O)OC[C@H]1OC(O)[C@H](O)[C@@H]1O (some centres unmarked) [R5S]	
